Test results: patent publication US10100006B2, “Compound having immune disease treatment effect and use thereof” (THE CATHOLIC UNIVERSITY OF KOREA INDUSTRY—ACADEMIC …, priority 2014, dated 2018)

Assays:
Total IgG = assay: Autoantibody production, sandwich ELISA: Total IgG; assay type: cell-based, mouse
IgG1 = assay: Autoantibody production, sandwich ELISA: IgG1; assay type: cell-based, mouse
IgG2 = assay: Autoantibody production, sandwich ELISA: IgG2; assay type: cell-based, mouse
IL-17 [1] = assay: Production of inflammatory cytokines, ELISA: IL-17, mouse spleen cells; assay type: cell-based
IL-17 [2] = assay: Production of inflammatory cytokines, ELISA: IL-17, lymphocytes of human peripheral blood; assay type: cell-based; details: D: Lymphocytes of human peripheral blood
Procedure: (§1) Further, in a lupus-developed mouse model, a sanroque mouse used in a lupus model in the art was used and the human P.B group was used by obtaining lymphocytes from the human peripheral blood. The isolation of spleen cells and the isolation of lymphocytes from each mouse and the human peripheral blood were performed by a general method which was widely known in the art and the obtained cells were incubated for 72 h under the anti-CD3 0.5 μg/ml stimulation condition, activated, and then used.
(§2) In order to verify whether the novel compounds of the present invention have an effect on inflammation and the production of inflammatory cytokines as cause substances of the immune diseases, the inventors analyzed the production degree of IL-17, IL-6, TNF-α, IFN-γ, MMP-9, and STAT-3 and the expression degree of mRNA of these cytokines by targeting each test group. The production degree of the inflammatory cytokines was analyzed through an ELISA after obtaining a supernatant by targeting cells which were treated with the compound of the present invention and incubated, and particularly, the cells reacted with cytokine-specific antibodies anti-IL-17, anti-IL-6, anti-TNF-α, anti-IFN-γ, anti-MMP-9, and anti-STAT-3 all night at […] and then non-specific binding was blocked with a blocking solution (1% BSA/PBST). Thereafter, each biotinylated antibody was reacted at room temperature for 2 hrs, washed four times, and then reacted at room temperature for 2 hrs after diluting and adding an extravidin-alkaline phosphatase conjugate. Thereafter, a PNPP/DEA solution was added and colored, and then the absorbance was measured at a wavelength of 405 nm.

IL-6 = assay: Production of inflammatory cytokines, ELISA: IL-6, mouse spleen cells; assay type: cell-based
TNF-a [3] = assay: Production of inflammatory cytokines, ELISA: TNF-a, mouse spleen cells; assay type: cell-based
IFN-r [4] = assay: Production of inflammatory cytokines, ELISA: IFN-r, mouse spleen cells; assay type: cell-based
IFN-r [5] = assay: Production of inflammatory cytokines, ELISA: IFN-r, lymphocytes of human peripheral blood; assay type: cell-based; details: D: Lymphocytes of human peripheral blood
Procedure: as §1, §2

TNF-a [6] = assay: Inflammatory gene expression, RT-PCR: TNF-a; assay type: cell-based, mouse; details: control = 1
MMP-9 = assay: Inflammatory gene expression, RT-PCR: MMP-9; assay type: cell-based, mouse; details: control = 1
STAT3 = assay: Inflammatory gene expression, RT-PCR: STAT3; assay type: cell-based; details: A: Normal mouse cells; control = 1
Th17 cells = assay: Inhibition of Th17 cells, flow cytometry; assay type: cell-based, mouse
Treg cells = assay: Treg cell-induced activity, flow cytometry; assay type: cell-based, mouse; details: TCR condition
osteoclasts = assay: Inhibition of differentiation of osteoclasts, TRAP staining; assay type: cell-based, mouse; details: M-CSF and RANKL
[7] = test system: cells in each test group disclosed in Table 3; assay: Cytotoxicity analysis (MTT assay); assay type: cell-based, mouse; human; details: treatment for each concentration, 72 hrs; normal cells and disease-group cells; compared with control or metformin-treated group
Procedure: In order to verify whether the compounds synthesized in the present invention causes the cytotoxicity in the cells, an MTT assay was performed, target cells were divided to be the number of 2×10^5 cells per well on a 96 well plate, treated with the compounds of the present invention for each concentration, incubated for 72 hrs, added with an MTT solution (0.5% 3-4,5-dimethyl thiazol-2-yl)-2,5-diphenyl-2H-tetrazolium bromide), and incubated for 4 hrs again. Thereafter, absorbance at 540 nm was measured by an enzymelinked immunospecific assay (ELISA) meter to observe the cytotoxicity.
In order to verify whether the novel compounds synthesized in Example 1 have the cytotoxicity, a cell survival rate was verified through the MTT assay by targeting cells in each test group disclosed in Table 3 above. That is, the cells of each test group were divided according to the number of 2×10^5 cells per well and treated with the novel synthesized compounds of the present invention for each concentration, and the cell survival rate was analyzed.

IL-17 [8] = assay: Inhibition of IL-17 production in anti-CD3 stimulated spleen cells of mouse, ELISA (Experimental Example 6); assay type: cell-based; details: spleen cells of DBA1/J normal mouse, anti mouse CD3 0.5 μg/ml, compound 200 and 500 μM; FIG. 24
Procedure: (§3) Furthermore, the inventors verified that inhibition degree of IL-17 and TNF-α as the inflammatory cytokines through an ELISA after treating anti mouse CD3 at a concentration of 0.5 μg/ml in the cells obtained from the spleen of a DBA1/J normal mouse group and commonly stimulating each compound at a concentration of 200 and 500 μM, in order to evaluating efficacy in an effect of inhibiting the inflammatory cytokines by targeting the compounds synthesized in Examples of the present invention.

TNF-α = assay: Inhibition of TNF-α production in anti-CD3 stimulated spleen cells of mouse, ELISA (Experimental Example 6); assay type: cell-based; details: spleen cells of DBA1/J normal mouse, anti mouse CD3 0.5 μg/ml, compound 200 and 500 μM; FIG. 24
Procedure: as §3

[9] = TCR condition, A: Normal mouse cells
[10] = TCR condition, B: Rheumatoid arthritis cells
[11] = Th17 condition (Th17 differentiation condition), A: Normal mouse cells

SMILES: CCN(C(=N)NC(=N)N)c1ccc(F)cc1F [SD-283, N-(2,4-Difluorophenyl)-N-ethylbiguanide]
- Total IgG (Total IgG; A: Normal mouse cells): 2.9 ng/mL
- Total IgG (Total IgG; B: Rheumatoid arthritis cells): 49.6 ng/mL
- Total IgG (Total IgG; C: Lupus cells): 113.5 ng/mL
- IgG1 (IgG1; A: Normal mouse cells): 41 ng/mL
- IgG1 (IgG1; B: Rheumatoid arthritis cells): 135.3 ng/mL
- IgG1 (IgG1; C: Lupus cells): 296.5 ng/mL
- IgG2 (IgG2; A: Normal mouse cells): 97.6 ng/mL
- IgG2 (IgG2; B: Rheumatoid arthritis cells): 99.4 ng/mL
- IgG2 (IgG2; C: Lupus cells): 76 ng/mL
- IL-17 production (IL-17 [1]; A: Normal mouse cells): 1.6 ng/mL
- IL-17 production (IL-17 [1]; B: Rheumatoid arthritis cells): 2.2 ng/mL
- IL-17 production (IL-17 [1]; C: Lupus cells): 0.4 ng/mL
- IL-17 production (IL-17 [2]): 0.1 ng/mL
- IL-6 production (IL-6; A: Normal mouse cells): 1.4 ng/mL
- IL-6 production (IL-6; B: Rheumatoid arthritis cells): 1.1 ng/mL
- IL-6 production (IL-6; C: Lupus cells): 0.9 ng/mL
- TNF-a production (TNF-a [3]; A: Normal mouse cells): 0.5 ng/mL
- TNF-a production (TNF-a [3]; B: Rheumatoid arthritis cells): 0.3 ng/mL
- TNF-a production (TNF-a [3]; C: Lupus cells): 0.6 ng/mL
- IFN-r production (IFN-r [4]; A: Normal mouse cells): 7.2 ng/mL
- IFN-r production (IFN-r [4]; B: Rheumatoid arthritis cells): 5.4 ng/mL
- IFN-r production (IFN-r [4]; C: Lupus cells): 5.5 ng/mL
- IFN-r production (IFN-r [5]): 0.1 ng/mL
- TNF-a gene expression (TNF-a [6]; A: Normal mouse cells): 0.4 gene expression
- TNF-a gene expression (TNF-a [6]; B: Rheumatoid arthritis cells): 0.06 gene expression
- TNF-a gene expression (TNF-a [6]; C: Lupus cells): 0.1 gene expression
- MMP-9 gene expression (MMP-9; A: Normal mouse cells): 0.3 gene expression
- MMP-9 gene expression (MMP-9; B: Rheumatoid arthritis cells): 1 gene expression
- MMP-9 gene expression (MMP-9; C: Lupus cells): 0.04 gene expression
- STAT3 gene expression (STAT3): 1.3 gene expression
- Th17 (Th17 cells; [9]): 1.1
- Th17 (Th17 cells; [10]): 2.3
- Th17 (Th17 cells; TCR condition, C: Lupus cells): 0.5
- Th17 (Th17 cells; [11]): 0.9
- Treg (Treg cells; A: Normal mouse cells): 3
- Treg (Treg cells; B: Rheumatoid arthritis cells): 5.1
- Treg (Treg cells; C: Lupus cells): 3.3
- TRAP + Cell (osteoclasts; A: Normal mouse cells): 123
- TRAP + Cell (osteoclasts; B: Rheumatoid arthritis cells): 85
- cytotoxicity (cell survival rate, MTT) [7]: cytotoxicity was not observed

SMILES: CN(C(=N)NC(=N)N)c1ccc(F)cc1F [SD-284, N-(2,4-Difluorophenyl)-N-methylbiguanide]
- IL-17 production (IL-17 [1]; Table 6, normal mouse cells): 6.5 ng/mL
- IL-17 production (IL-17 [2]): 0.1 ng/mL
- IL-6 production (IL-6; Table 6, normal mouse cells): 0.7 ng/mL
- TNF-a production (TNF-a [3]; Table 6, normal mouse cells): 0.5 ng/mL
- IFN-r production (IFN-r [4]; Table 6, normal mouse cells): 4.9 ng/mL
- IFN-r production (IFN-r [5]): 0.08 ng/mL
- Th17 (Th17 cells; [11]): 2
- cytotoxicity (cell survival rate, MTT) [7]: cytotoxicity was not observed

SMILES: CCN(C(=N)NC(=N)N)c1ccc(Br)cc1 [SD-567, N-(4-Bromophenyl)-N-ethyl-biguanide]
- inhibition of IL-17 production (IL-17 [8]): simultaneously inhibiting the IL-17 and the TNF-α
- inhibition of TNF-α production (TNF-α): simultaneously inhibiting the IL-17 and the TNF-α

SMILES: CCN(C(=N)NC(=N)N)c1ccc(Cl)cc1 [SD-566, N-(4-Chlorophenyl)-N-ethyl-biguanide]
- inhibition of IL-17 production (IL-17 [8]): simultaneously inhibiting the IL-17 and the TNF-α
- inhibition of TNF-α production (TNF-α): simultaneously inhibiting the IL-17 and the TNF-α

SMILES: CCN(C(=N)NC(=N)N)c1ccccc1F [SD-574, N-Ethyl-N-(2-fluorophenyl) biguanide]
- inhibition of IL-17 production (IL-17 [8]): simultaneously inhibiting the IL-17 and the TNF-α
- inhibition of TNF-α production (TNF-α): simultaneously inhibiting the IL-17 and the TNF-α

SMILES: CCN(C(=N)NC(=N)N)c1ccccc1 [SD-573, N-Ethyl-N-phenyl biguanide]
- inhibition of IL-17 production (IL-17 [8]): simultaneously inhibiting the IL-17 and the TNF-α
- inhibition of TNF-α production (TNF-α): simultaneously inhibiting the IL-17 and the TNF-α

SMILES: N=C(N)NC(=N)Nc1ccc(Br)cc1 [SD-563, N-(4-Bromophenyl) biguanide]
- inhibition of IL-17 production (IL-17 [8]): simultaneously inhibiting the IL-17 and the TNF-α
- inhibition of TNF-α production (TNF-α): simultaneously inhibiting the IL-17 and the TNF-α

SMILES: N=C(N)NC(=N)Nc1cccc(Cl)c1 [SD-564, N-(3-Chlorophenyl) biguanide]
- inhibition of IL-17 production (IL-17 [8]): simultaneously inhibiting the IL-17 and the TNF-α
- inhibition of TNF-α production (TNF-α): simultaneously inhibiting the IL-17 and the TNF-α

SMILES: CCCN(C(=N)NC(=N)N)c1ccc(F)cc1F [SD-580, N-(2,4-Difluorophenyl)-N-propylbiguanide]
- inhibition of IL-17 production (IL-17 [8]): simultaneously inhibiting the IL-17 and the TNF-α
- inhibition of TNF-α production (TNF-α): simultaneously inhibiting the IL-17 and the TNF-α

SMILES: CCN(C(=N)NC(=N)N)c1ccc(F)c(F)c1 [SD-281, N-(3,4-Difluorophenyl)-N-ethylbiguanide]
- Total IgG (Total IgG; A: Normal mouse cells): 2.3 ng/mL
- Total IgG (Total IgG; B: Rheumatoid arthritis cells): 58.1 ng/mL
- Total IgG (Total IgG; C: Lupus cells): 124.5 ng/mL
- IgG1 (IgG1; A: Normal mouse cells): 83.8 ng/mL
- IgG1 (IgG1; B: Rheumatoid arthritis cells): 135.2 ng/mL
- IgG1 (IgG1; C: Lupus cells): 258.2 ng/mL
- IgG2 (IgG2; A: Normal mouse cells): 35.6 ng/mL
- IgG2 (IgG2; B: Rheumatoid arthritis cells): 33.5 ng/mL
- IgG2 (IgG2; C: Lupus cells): 84.3 ng/mL
- IL-17 production (IL-17 [1]; A: Normal mouse cells): 1.7 ng/mL
- IL-17 production (IL-17 [1]; B: Rheumatoid arthritis cells): 2.2 ng/mL
- IL-17 production (IL-17 [1]; C: Lupus cells): 0.6 ng/mL
- IL-17 production (IL-17 [2]): 0.1 ng/mL
- IL-6 production (IL-6; A: Normal mouse cells): 1.4 ng/mL
- IL-6 production (IL-6; B: Rheumatoid arthritis cells): 1.4 ng/mL
- IL-6 production (IL-6; C: Lupus cells): 1 ng/mL
- TNF-a production (TNF-a [3]; A: Normal mouse cells): 0.5 ng/mL
- TNF-a production (TNF-a [3]; B: Rheumatoid arthritis cells): 0.4 ng/mL
- TNF-a production (TNF-a [3]; C: Lupus cells): 0.7 ng/mL
- IFN-r production (IFN-r [4]; A: Normal mouse cells): 5.8 ng/mL
- IFN-r production (IFN-r [4]; B: Rheumatoid arthritis cells): 5.3 ng/mL
- IFN-r production (IFN-r [4]; C: Lupus cells): 10 ng/mL
- IFN-r production (IFN-r [5]): 0.1 ng/mL
- TNF-a gene expression (TNF-a [6]; A: Normal mouse cells): 0.2 gene expression
- TNF-a gene expression (TNF-a [6]; B: Rheumatoid arthritis cells): 0.6 gene expression
- TNF-a gene expression (TNF-a [6]; C: Lupus cells): 0.1 gene expression
- MMP-9 gene expression (MMP-9; A: Normal mouse cells): 0.5 gene expression
- MMP-9 gene expression (MMP-9; B: Rheumatoid arthritis cells): 0.4 gene expression
- MMP-9 gene expression (MMP-9; C: Lupus cells): 0.4 gene expression
- STAT3 gene expression (STAT3): 1.2 gene expression
- Th17 (Th17 cells; [9]): 1.2
- Th17 (Th17 cells; [10]): 1.5
- Th17 (Th17 cells; TCR condition, C: Lupus cells): 0.8
- Th17 (Th17 cells; [11]): 0.4
- Treg (Treg cells; A: Normal mouse cells): 2
- Treg (Treg cells; B: Rheumatoid arthritis cells): 4.6
- Treg (Treg cells; C: Lupus cells): 2.8
- TRAP + Cell (osteoclasts; A: Normal mouse cells): 196
- TRAP + Cell (osteoclasts; B: Rheumatoid arthritis cells): 57
- cytotoxicity (cell survival rate, MTT) [7]: cytotoxicity was not observed
